Active and inactive are the calls of the source.
Legend:
cells [1] = assay type: functional, cell-based
[2] = target: T1, Trace amine-associated receptor 1 (Homo sapiens, UniProt Q96RJ0); assay: Fluorescence-based cell-based high throughput dose response assay to identify agonists of the human trace amine associated receptor 1 (TAAR1).; assay type: functional
T1 sequence (Q96RJ0 whole entry): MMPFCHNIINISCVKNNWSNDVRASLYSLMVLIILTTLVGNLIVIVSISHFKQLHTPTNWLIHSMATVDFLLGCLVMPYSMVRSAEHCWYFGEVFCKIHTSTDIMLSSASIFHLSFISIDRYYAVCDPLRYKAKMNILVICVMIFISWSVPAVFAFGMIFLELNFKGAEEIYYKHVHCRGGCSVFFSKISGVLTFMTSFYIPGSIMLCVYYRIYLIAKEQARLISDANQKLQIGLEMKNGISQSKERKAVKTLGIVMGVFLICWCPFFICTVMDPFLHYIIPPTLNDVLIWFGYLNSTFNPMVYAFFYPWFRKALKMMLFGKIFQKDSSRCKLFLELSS

[3] = target: T1, Trace amine-associated receptor 1; assay: Counterscreen for agonists of the human trace amine associated receptor 1 (hTAAR1): Fluorescence-based cell-based high throughput dose response assay to identify hTAAR1 agonist that also desensitize TAAR1 receptor response.; assay type: functional
cells [4] = assay type: functional, cell-based; remark: listed apart in the source
[5] = target: T2, Corticotropin-releasing factor receptor 2/Corticotropin-releasing factor-binding protein (Homo sapiens, UniProt P24387+Q13324); assay: Dose Response confirmation of uHTS hits for small molecule antagonists of the CRF-binding protein and CRF-R2 receptor complex.; assay type: functional; details: read-out: IC50_Mean
T2 sequence (Q13324 whole entry): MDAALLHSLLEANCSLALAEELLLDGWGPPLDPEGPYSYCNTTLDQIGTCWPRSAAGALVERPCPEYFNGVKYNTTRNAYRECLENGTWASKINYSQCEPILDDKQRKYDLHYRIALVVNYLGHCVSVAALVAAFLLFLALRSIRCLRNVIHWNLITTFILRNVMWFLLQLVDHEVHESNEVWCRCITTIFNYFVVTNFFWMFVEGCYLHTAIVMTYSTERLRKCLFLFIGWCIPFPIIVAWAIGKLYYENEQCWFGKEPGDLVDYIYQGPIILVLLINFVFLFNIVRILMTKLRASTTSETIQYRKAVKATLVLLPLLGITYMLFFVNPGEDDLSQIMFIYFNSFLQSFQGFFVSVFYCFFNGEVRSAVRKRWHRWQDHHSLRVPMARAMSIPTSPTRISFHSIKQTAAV
T2 sequence (P24387 whole entry): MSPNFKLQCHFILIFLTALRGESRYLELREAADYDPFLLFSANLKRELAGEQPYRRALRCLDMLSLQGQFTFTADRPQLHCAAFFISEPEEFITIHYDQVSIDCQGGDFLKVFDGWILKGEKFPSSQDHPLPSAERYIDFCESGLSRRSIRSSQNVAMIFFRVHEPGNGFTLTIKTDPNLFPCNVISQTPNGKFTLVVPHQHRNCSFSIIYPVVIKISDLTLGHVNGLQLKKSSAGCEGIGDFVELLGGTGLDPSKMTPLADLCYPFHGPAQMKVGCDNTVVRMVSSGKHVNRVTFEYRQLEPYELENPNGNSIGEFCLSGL

[6] = target: T2, Corticotropin-releasing factor receptor 2/Corticotropin-releasing factor-binding protein; assay: activators of CRF receptor 2 with binding protein – uHTS hits, confirmation (AID 602473); assay type: functional; details: read-out: EC50_Mean
[7] = blockers of CRF-binding protein–CRF-R2 complex – cell-based, uHTS hits, 384-well, dose response (AID 651639); assay type: functional, Homo sapiens; details: read-out: IC50_Mean
[8] = target: Disintegrin and metalloproteinase domain-containing protein 17 (Homo sapiens, UniProt P78536); assay: exosite inhibitors of ADAM17, dose response, biochemical (AID 743260)
[9] = inhibition of ADAM10 peptide cleavage – biochemical, FRET peptide substrate, recombinant human ADAM10, selectivity assay for ADAM17 exosite inhibitor project, dose response (AID 743259);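 further: ADAM10 enzyme cleaving a FRET peptide substrate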
Mu-type opioid receptor = Mu-type opioid receptor (Homo sapiens, UniProt P35372); assay type: functional, cell-based;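 further: U2OS cells with beta-arrestin recruitment to OPRM1 by beta-gal complementation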
[10] = target: 5-hydroxytryptamine receptor 2A (Mus musculus, UniProt P35363); assay type: functional, cell-based;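 further: CHO-K1 cells with tagged receptor and beta-arrestin; agonist potency measured as compound-induced activation of the receptor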
H9c2 = assay: cells; assay type: functional, cell-based; details: Rattus norvegicus, H9c2, Myocardium;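 further: confirmatory concentration-response retest of ultra-high-throughput screening hits for modulation of myocardial damage; cell death induced by hydrogen peroxide oxidative stress; compound pretreatment for 60 min then peroxide exposure for 2 h; potency is for protecting the cells against peroxide damage rather than for killing them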
[11] = target: T3, DNA repair and recombination protein RAD54-like (Homo sapiens, UniProt Q92698); assay: RAD54 Holliday junction migration blockers – biochemical, fluorescence, cherry-picked samples, dose series, confirmation (AID 651657); assay type: functional
T3 sequence (Q92698 whole entry): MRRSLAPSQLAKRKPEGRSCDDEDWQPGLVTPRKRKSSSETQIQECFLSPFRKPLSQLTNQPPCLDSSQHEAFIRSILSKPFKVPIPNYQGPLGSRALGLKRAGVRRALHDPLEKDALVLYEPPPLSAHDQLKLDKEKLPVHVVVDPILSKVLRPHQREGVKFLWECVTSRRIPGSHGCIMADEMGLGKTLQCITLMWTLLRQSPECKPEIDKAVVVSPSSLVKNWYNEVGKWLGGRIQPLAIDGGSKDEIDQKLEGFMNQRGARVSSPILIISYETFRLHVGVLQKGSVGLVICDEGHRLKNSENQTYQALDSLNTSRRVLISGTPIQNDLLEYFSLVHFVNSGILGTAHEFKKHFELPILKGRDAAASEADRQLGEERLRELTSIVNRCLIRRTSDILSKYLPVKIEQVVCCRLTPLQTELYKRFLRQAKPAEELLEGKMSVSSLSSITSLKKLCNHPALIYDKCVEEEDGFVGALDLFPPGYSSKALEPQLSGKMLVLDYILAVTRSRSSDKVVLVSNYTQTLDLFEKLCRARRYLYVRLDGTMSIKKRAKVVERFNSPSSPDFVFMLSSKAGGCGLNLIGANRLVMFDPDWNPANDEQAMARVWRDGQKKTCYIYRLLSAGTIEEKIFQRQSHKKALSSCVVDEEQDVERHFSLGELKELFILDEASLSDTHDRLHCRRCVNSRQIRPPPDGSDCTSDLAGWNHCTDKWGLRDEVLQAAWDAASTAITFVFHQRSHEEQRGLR

[12] = target: T4, DNA repair protein RAD52 homolog (Homo sapiens, UniProt P43351); assay type: functional, biochemical
T4 sequence (P43351 whole entry): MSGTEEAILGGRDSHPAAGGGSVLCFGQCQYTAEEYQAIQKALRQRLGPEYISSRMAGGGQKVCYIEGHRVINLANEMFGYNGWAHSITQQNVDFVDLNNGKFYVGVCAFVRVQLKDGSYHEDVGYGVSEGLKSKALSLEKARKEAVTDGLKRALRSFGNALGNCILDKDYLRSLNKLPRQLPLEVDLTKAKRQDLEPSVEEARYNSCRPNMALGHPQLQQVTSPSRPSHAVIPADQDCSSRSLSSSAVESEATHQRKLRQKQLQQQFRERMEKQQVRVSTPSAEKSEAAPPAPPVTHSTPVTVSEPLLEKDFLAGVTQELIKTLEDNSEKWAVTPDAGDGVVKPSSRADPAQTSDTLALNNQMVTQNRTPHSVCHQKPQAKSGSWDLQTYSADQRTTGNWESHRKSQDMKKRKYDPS

[13] = Luminescence Cell-Based Dose Response HTS to Identify Activators of Luciferase Translation or Activity in H4 […] Cells. [Related pubchem assays: 1829 (Project Summary), 1814 (Primary HTS)]; assay type: functional
H4 = assay: Luminescence Cell-Based Dose Response HTS to Identify Activators of 5'UTR Stem-Loop Driven Prion Protein mRNA Translation in H4 Neuroglioblastoma Cells. [Related pubchem assays: 1829 (Project Summary), 1814 (Primary HTS)]; assay type: functional; details: Homo sapiens
Large T antigen = Large T antigen (Simian virus 40, UniProt P03070); assay type: functional, Betapolyomavirus macacae;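 further: Confirmatory-stage PubChem screen for compounds that inhibit SV40 T antigen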
[14] = viability loss in HeLa cells – cytotoxicity control for MgcRacGAP inhibitor project, dose response (AID 624300); assay type: functional
[15] = target: T5, Rac GTPase-activating protein 1 (Homo sapiens, UniProt Q9H0H5); assay: blockers of MgcRacGAP-driven Rac1 GTP hydrolysis – biochemical, ADP Hunter fluorescence, primary and confirmatory, confirmation (AID 624330); assay type: functional
T5 sequence (Q9H0H5 whole entry): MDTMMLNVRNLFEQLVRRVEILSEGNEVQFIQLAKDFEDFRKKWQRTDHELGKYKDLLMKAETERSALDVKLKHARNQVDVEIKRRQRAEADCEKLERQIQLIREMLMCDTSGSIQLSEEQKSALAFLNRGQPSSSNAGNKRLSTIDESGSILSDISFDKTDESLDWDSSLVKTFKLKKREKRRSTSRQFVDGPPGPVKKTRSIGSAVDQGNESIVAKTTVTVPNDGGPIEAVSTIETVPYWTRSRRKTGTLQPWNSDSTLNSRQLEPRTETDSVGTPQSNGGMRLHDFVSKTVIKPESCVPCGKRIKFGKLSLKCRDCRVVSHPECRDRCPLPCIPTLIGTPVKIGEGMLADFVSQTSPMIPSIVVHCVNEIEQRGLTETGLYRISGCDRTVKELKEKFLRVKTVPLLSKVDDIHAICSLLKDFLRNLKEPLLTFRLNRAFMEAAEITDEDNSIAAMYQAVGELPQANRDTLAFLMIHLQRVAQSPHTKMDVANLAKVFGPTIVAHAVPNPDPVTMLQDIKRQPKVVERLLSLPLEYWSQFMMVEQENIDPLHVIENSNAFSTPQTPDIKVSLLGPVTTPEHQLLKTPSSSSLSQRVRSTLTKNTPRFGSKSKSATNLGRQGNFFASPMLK

[16] = Luminescence-based cell-based high throughput dose response assay to identify activators of the DAF-12 from the parasite S. stercoralis (ssDAF-12).; assay type: functional
[17] = target: T6, Oxysterols receptor LXR-beta (Homo sapiens, UniProt P55055); assay: LXR agonists, Gal4 luciferase reporter, dose response, counter-screen for ssDAF-12 agonist project, cell-based, luminescence, HEK293, S. stercoralis campaign (AID 720737); assay type: functional; details: read-out: IC50 (the source's name)
T6 sequence (P55055 whole entry): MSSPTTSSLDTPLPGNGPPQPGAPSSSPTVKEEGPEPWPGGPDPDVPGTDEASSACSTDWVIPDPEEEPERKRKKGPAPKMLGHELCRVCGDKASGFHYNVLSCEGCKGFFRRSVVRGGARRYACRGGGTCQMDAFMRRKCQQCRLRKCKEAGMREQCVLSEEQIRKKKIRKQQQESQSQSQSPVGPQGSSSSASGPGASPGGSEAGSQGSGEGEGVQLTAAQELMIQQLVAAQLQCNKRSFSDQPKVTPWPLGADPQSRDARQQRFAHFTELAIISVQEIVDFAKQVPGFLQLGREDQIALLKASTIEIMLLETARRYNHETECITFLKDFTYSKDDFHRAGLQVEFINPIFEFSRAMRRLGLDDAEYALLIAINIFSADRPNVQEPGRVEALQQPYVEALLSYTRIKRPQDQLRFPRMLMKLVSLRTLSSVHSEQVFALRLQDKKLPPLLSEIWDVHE

[18] = Luminescence Cell-Based Dose Confirmation HTS to Identify Activators of 5'UTR Stem-Loop Driven Alpha-Synuclein mRNA Translation in H4 Neuroglioblastoma Cells. [Related pubchem assays: 1829 (Project Summary), 1814 (Primary HTS)]; assay type: functional

Sequence of 5-hydroxytryptamine receptor 2A (P35363 whole entry): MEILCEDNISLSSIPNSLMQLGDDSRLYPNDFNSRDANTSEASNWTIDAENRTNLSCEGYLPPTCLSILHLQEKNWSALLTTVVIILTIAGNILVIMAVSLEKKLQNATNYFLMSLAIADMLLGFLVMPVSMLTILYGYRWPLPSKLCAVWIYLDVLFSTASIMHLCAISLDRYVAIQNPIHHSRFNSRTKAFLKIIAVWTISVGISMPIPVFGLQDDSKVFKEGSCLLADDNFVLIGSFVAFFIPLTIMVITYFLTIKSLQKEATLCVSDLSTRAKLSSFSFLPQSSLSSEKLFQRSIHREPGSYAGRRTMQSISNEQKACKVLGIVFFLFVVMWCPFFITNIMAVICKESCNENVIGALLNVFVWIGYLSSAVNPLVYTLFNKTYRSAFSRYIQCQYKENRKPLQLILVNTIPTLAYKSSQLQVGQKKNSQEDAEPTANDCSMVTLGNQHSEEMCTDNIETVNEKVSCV
Sequence of Mu-type opioid receptor (P35372 whole entry): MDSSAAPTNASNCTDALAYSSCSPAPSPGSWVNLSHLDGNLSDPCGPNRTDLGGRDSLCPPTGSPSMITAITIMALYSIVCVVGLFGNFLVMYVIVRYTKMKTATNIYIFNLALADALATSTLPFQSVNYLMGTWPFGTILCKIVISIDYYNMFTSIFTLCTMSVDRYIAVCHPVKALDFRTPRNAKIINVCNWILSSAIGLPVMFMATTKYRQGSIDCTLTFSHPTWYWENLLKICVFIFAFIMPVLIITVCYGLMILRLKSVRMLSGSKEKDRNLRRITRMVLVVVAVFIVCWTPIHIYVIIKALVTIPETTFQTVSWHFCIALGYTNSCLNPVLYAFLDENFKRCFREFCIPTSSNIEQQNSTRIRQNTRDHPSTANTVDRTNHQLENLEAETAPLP
Sequence of Large T antigen (P03070 whole entry): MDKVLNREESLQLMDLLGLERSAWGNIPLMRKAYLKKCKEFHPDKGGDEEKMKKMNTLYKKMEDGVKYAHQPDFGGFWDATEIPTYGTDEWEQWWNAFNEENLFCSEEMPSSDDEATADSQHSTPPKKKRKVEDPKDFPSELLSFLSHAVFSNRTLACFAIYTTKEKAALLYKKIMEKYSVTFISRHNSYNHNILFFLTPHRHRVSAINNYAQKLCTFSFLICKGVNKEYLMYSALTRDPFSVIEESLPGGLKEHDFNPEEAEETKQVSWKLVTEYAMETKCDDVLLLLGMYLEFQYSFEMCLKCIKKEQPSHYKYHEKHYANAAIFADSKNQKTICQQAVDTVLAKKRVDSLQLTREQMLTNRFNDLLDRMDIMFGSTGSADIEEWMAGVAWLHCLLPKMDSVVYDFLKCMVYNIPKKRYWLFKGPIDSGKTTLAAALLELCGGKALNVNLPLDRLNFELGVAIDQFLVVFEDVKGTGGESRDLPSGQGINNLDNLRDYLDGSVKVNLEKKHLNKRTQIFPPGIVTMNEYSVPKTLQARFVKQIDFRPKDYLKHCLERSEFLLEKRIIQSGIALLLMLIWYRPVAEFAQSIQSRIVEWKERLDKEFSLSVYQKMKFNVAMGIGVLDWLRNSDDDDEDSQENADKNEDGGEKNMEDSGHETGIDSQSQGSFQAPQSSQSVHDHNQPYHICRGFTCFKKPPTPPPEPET
Sequence of Disintegrin and metalloproteinase domain-containing protein 17 (P78536 whole entry, the tested form may be a part): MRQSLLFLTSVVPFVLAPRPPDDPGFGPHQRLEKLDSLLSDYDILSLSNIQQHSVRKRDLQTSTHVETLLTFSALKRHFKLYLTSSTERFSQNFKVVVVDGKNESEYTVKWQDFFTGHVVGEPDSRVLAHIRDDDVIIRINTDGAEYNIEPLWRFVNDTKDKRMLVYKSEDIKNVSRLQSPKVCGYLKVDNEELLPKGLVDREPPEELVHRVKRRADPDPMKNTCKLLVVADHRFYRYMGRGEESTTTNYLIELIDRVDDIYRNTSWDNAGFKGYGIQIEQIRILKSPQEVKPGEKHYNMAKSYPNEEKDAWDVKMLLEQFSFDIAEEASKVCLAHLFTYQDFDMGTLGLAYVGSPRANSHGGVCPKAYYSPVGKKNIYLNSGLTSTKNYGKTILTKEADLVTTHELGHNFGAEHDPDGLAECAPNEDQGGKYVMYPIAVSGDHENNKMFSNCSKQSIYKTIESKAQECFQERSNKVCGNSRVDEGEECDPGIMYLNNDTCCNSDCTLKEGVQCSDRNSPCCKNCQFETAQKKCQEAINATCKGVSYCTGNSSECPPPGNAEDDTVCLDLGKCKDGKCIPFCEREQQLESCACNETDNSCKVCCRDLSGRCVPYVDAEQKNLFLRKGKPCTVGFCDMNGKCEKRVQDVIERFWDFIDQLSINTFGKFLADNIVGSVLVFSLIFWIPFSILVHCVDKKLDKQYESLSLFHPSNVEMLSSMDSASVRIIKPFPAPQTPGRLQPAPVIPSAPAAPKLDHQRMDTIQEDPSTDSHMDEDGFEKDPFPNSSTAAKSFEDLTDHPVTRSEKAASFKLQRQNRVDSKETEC

O=C(NCCc1ccccc1)c1nc2nc(-c3cccs3)cc(C(F)(F)F)n2n1
IC50 (cells [1]): 24.1 µM (inactive)
EC50 [2]: 346 nM (active)
IC50 [3]: 1.91 µM (active)
EC50 (cells [4]): > 29.9 µM (inactive)

COC(=O)c1ccc(CN2C(=O)C(C)N(C(=O)c3c(F)cccc3F)c3ccccc32)cc1 (stereo unspecified)
IC50 [5]: < 368 nM (active)
EC50 [6]: > 53 µM (inactive)
IC50 [7]: 17 µM (active)
IC50 [8]: > 69.5 µM (inactive)
IC50 [9]: > 69.5 µM (inactive)

COc1cc(C(C)=O)ccc1OCC(O)CN1CCN(c2ccccn2)CC1 (stereo unspecified)
EC50 (Mu-type opioid receptor): 92.5 µM (inactive)
EC50 [10]: 0.321 µM (active)

COc1cc(C2c3cc4c(cc3OC(NCCc3ccccc3)C2C)OCO4)cc(OC)c1OC (stereo unspecified)
IC50 (cells [1]): > 29.9 µM (inactive)
EC50 [2]: 23.9 nM (active)
IC50 [3]: 0.261 µM (active)
EC50 (cells [4]): > 29.9 µM (inactive)

COc1cc2nc(Nc3ccc(F)cc3)nc(N)c2cc1OC
IC50 (H9c2): > 79 µM (inactive)
AC50 [11]: 49.9 µM (active)
AC50 [12]: 7.26 µM (active)

COc1ccccc1-c1ccc(SCc2cccc(F)c2)nn1
IC50 [5]: < 368 nM (active)
EC50 [6]: > 53 µM (inactive)
IC50 [7]: > 20 µM (inactive)

CCOc1cc(/C=N/NC(=O)Nc2ccccc2)ccc1O
EC50 [13]: 16.6 µM (active)
EC50 (H4): 1.94 µM (active)
IC50 (Large T antigen): > 100 µM (active)
CC50 [14]: 100 µM (active)
IC50 [15]: 32.5 µM (active)
IC50 [16]: > 67.6 µM (inactive)
EC50 [17]: > 67.6 µM (inactive)

O=C(c1ccco1)N1CCN(CCCCN2C(=O)c3ccccc3C2=O)CC1
EC50 (Mu-type opioid receptor): 92.5 µM (inactive)
EC50 [10]: 76.1 µM (inactive)

CC1CCc2sc3nc(N4CCN(CCO)CC4)n4ncnc4c3c2C1 (stereo unspecified)
EC50 [18]: 24.7 µM (active)
EC50 [13]: 8.04 µM (active)
EC50 (H4): 34.7 µM (active)
AC50 [11]: 34.7 µM (active)

CCN1C(=O)/C(=C2/C=Cc3cc(C)ccc3N2CC)N(C)C1=S
CC50 [14]: 100 µM (active)
IC50 [15]: 60.4 µM (active)

CC(=O)NC(Cc1cccc(C)c1)C(=O)NC1CCN(c2ncccc2[N+](=O)[O-])CC1 (stereo unspecified)
IC50 [5]: 5130 nM (active)
EC50 [6]: > 53 µM (inactive)
IC50 [7]: 18.8 µM (active)

Clc1ccc(CN2CCN(c3ncccn3)CC2)c(Cl)c1
EC50 (Mu-type opioid receptor): 92.5 µM (inactive)
EC50 [10]: 1.29 µM (active)

Source: ChEMBL document CHEMBL1201862, “PubChem BioAssay data set” (2004)
